Calls of active or inactive are those of the source.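 The calls were made as follows: active = compounds giving half or more protection of infected cells from virus-caused growth loss, again on retest; inactive = the rest.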
System: CEM cells HIV-1 protection, formazan growth assay
Assay: NCI AIDS Antiviral Assay
Details: for IC50: measured here: growth of uninfected CEM cells
Procedure, shortened: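 Human CEM cells, uninfected and HIV-1-infected, received five drug concentrations, and growth was read by soluble formazan assay. Compounds giving at least 50% protection were retested; reproducible 100% protection defined confirmed active.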

SMILES | EC50 | IC50 | outcome
CCOC(=O)c1[nH]c2cccc3c2c1CC[C@H](NC(=O)C(F)(F)F)C3=O | > 200 µM | > 200 µM | 
C=CCOCC(O)CNCC(O)COCC=C (stereo unspecified) | > 200 µM | > 200 µM | 
Cc1ccc(C)c(NC(=O)CCC(=O)CC(=O)C(C)(C)C)c1 |  |  | inactive
Brc1cccc[n+]1Cc1cccc(C[n+]2ccccc2Br)c1 | 0.0631 µM | 141 µM | 
COC(=O)c1ccc(CSc2ccccc2)cc1 | > 28.2 µM | > 28.2 µM | 
CC(=O)OCC1OC(OCCCOP(=O)(OCCC#N)OCC2OC(n3cnc4c(N)ncnc43)C(OC(=O)c3ccccc3)C2OC(=O)c2ccccc2)C(OC(C)=O)C(OC(C)=O)C1OC(C)=O (stereo unspecified) | > 100 µM | > 100 µM | 
CN(C)c1ccc(/C=C2\CC(C)(C)c3ccccc3C2=O)cc1 | > 2 µM | 0.363 µM | 
O=C(O)[C@H](NS(=O)(=O)c1ccc2ccccc2c1)c1ccccc1 |  |  | inactive
Cn1c(=O)ccc2c1nc1ccccc1[n+]2[O-] | > 60.3 µM | > 60.3 µM | 
COc1ccc(C2Oc3ccc(Cl)cc3C=C2[N+](=O)[O-])cc1OC (stereo unspecified) | > 2 µM | 0.724 µM | 
O=C1NC(=O)C(CCN2CCCCC2)(c2ccccc2)C(=O)N1 | > 200 µM | > 200 µM | 
O=C1NC(=O)C2C(=O)NC(=O)C1C2(c1ccccc1)c1ccc(Cl)cc1 (stereo unspecified) | > 676 µM | 468 µM | 
Cc1ccccc1NC(=O)CC(=O)N1N=C(N(CCC#N)c2ccccc2Cl)CC1c1ccccc1 (stereo unspecified) | > 263 µM | > 263 µM | 
CN(C)CCC(/C=C/c1ccccc1)=N\Nc1c(F)c(F)c(F)c(F)c1F |  |  | inactive
CC(Br)(c1ccccc1)[P+](c1ccccc1)(c1ccccc1)c1ccccc1 (stereo unspecified) | > 20 µM | 0.871 µM | 
CC(C)(C)OC(=O)CC(NC(=O)OC(C)(C)C)C(=O)NC(C(=O)O)C(O)c1ccccc1 (stereo unspecified) | > 200 µM | 93.3 µM | 
CN(C1=NCCO1)c1cccc2ccccc12 | > 200 µM | 129 µM | 
COCCN1CC(=O)N2Cc3ccccc3CN2C(=O)C1 |  | > 200 µM | inactive
CCCCCCOP(=O)(OCCCCCC)C(NC(=O)OCC)(C(F)(F)F)C(F)(F)F | > 200 µM | 21.9 µM | 
O=C(O)c1ccc2[nH]c(=O)oc2c1 | > 200 µM | > 200 µM | 
CCc1cccc2c3c([nH]c12)C(CC)(CC(=O)O)OCC3 (stereo unspecified) | > 200 µM | > 200 µM | 
COc1ccc(C(C)=O)cc1CN1CCN(Cc2cc(C(C)=O)ccc2OC)CC1 | > 33.1 µM | > 33.1 µM | 
C[n+]1cccc2ccc(OC(=O)c3ccccc3)cc21 |  |  | inactive

SMILES | EC50 | IC50 | outcome
Nc1ncnc2c1ncn2[C@H]1C(CO)CC1(F)F (stereo partly specified) | > 182 µM | > 182 µM | 
O=C(c1ccccc1)N1CCC(Nc2cccnc2)O1 (stereo unspecified) | > 200 µM | 105 µM | 
COC(=O)/C(=C/c1ccc(OC)cc1)C(C(=O)O)=C(C)C | > 871 µM | 11.2 µM | 
Cc1cccc2ns[s+]c12 | > 18.6 µM | > 18.6 µM | 
CCSCN(C)c1nc(N(C)C)nc(N(C)C)n1 | > 200 µM | 8.51 µM | 
CCOP(=O)(OCC)/C(C#N)=C/c1cccn1CC(C)C | 60.3 µM | 123 µM | 
Clc1ccc(C=NC23CC4CC(CC(C4)C2)C3)cc1Cl | > 200 µM | 95.5 µM | 
CC1CCC2C(C(=O)O[C@H]3C4C=CO[C@@H](OC5OC(CO)C(O)C(O)C5O)C4[C@@]4(CO)O[C@@H]34)=CO[C@@H](OC3OC(CO)C(O)C(O)C3O)C12 (stereo partly specified) | > 200 µM | > 200 µM | 
COc1ccc(/C=C2\N=C(SC)NC2=O)cc1 | > 200 µM | 107 µM | 
CC(=O)Nc1cccc2[nH]c3ccccc3c(=O)c12 |  |  | inactive
N/C(=N/N=C/c1cccc([N+](=O)[O-])c1)NO |  |  | inactive
O=C(C(=O)n1ncc(Cl)c(Cl)c1=O)n1ncc(Cl)c(Cl)c1=O | > 93.3 µM | 50.1 µM | 
COc1cc2c(cc1OC)[C@@H](C(O)c1ccccc1)NCC2 (stereo partly specified) |  |  | inactive
COC(=O)CN(CC(=O)NCCNC(=O)OC(C)(C)C)C1CCCCC1N(CC(=O)OC)CC(=O)OC (stereo unspecified) | > 200 µM | > 200 µM | 
CC(C)CCC[C@@H](C)[C@H]1CC[C@H]2[C@@H]3CC[C@H]4C[C@@H](CC/C=C(/c5ccc(OCc6ccccc6B(O)O)c(C(=O)O)c5)c5cc(Cl)c(OCc6ccccc6B(O)O)c(C(=O)O)c5)CC[C@]4(C)[C@H]3CC[C@]12C | > 200 µM | > 200 µM | 
CC(=O)O[C@H]1CC[C@]2(C)C3=CC[C@]4(C)[C@@H](C(C)=O)CC[C@H]4[C@@]34C=C[C@]2(C1)C1C(=O)OC(=O)C14 (stereo partly specified) | > 200 µM | 70.8 µM | 
O=[N+]1ON=C(c2ccccc2)C1=C1C(c2c(-c3ccccc3)no[n+]2[O-])=NON1[O-] | > 200 µM | 6.03 µM | 
CCOP(=O)(CCP(=O)(OCC)OCC)OCC.C[CH2][Sn]([Cl])([Cl])[CH2]C |  |  | inactive
Cc1ccc(S(=O)(=O)NC(=O)NC23CC4CC(CC(F)(C4)C2)C3)cc1 | > 676 µM | 339 µM | 
Cc1cccc(C(C)(C)C)c1NC(=O)C(=O)Cc1nc2ccccc2s1 |  |  | inactive
CCOc1ccc(N=Nc2ccc(N)cc2N)cc1 | > 200 µM | 107 µM | 
CC(C)=NNC(=O)CC(=O)N(C(=O)c1ccccc1Cl)c1ccc(C)cc1 | > 468 µM | > 468 µM | 

Source: PubChem BioAssay AID179 (DTP/NCI, 2004)
